Results on 54 compounds are retold here after ChEMBL document CHEMBL2363022, “Malaria Box Schistosomiasis Screening Data” (2013).

Holding throughout (type): functional
Holding throughout (parameters): scale not given here

Assay [1] deals with Schistosoma mansoni.
Assay [2] concerns Schistosoma mansoni. This is another data set of the same source.
For assay [3], the system named is Schistosoma mansoni. The source holds these as a separate data set.

Regarding `COc1ccc(NC(=O)C2c3ccccc3C(=O)N(CC(C)C)C2c2cccs2)cc1Cl` (configuration not stated), the Toxicity in the assay with Schistosoma mansoni [1], in the assay on Schistosoma mansoni [2] and in the assay on Schistosoma mansoni [3] was 0 in each case.
Turning to `O=C(O)C1Cc2c([nH]c3ccccc23)C(c2ccc(Cl)cc2Cl)N1` (configuration not stated), the Toxicity in the assay on Schistosoma mansoni [1], in the assay with Schistosoma mansoni [2] and in the assay with Schistosoma mansoni [3] was 0 each time.
`CCOC(=O)c1cnc2ccc(OC)cc2c1Nc1ccc(N2CCN(C)CC2)cc1`: the Toxicity came to 0 in the assay on Schistosoma mansoni [1], 4 in the assay on Schistosoma mansoni [2] and 4 with Schistosoma mansoni [3].
Consider `Cn1c(C(=O)c2cccc3ccccc23)nc2ccccc21`, for which the Toxicity with Schistosoma mansoni [1], in the assay on Schistosoma mansoni [2] and with Schistosoma mansoni [3] was 0 in each case.
`CCOC(=O)c1cnc2c(C)cccc2c1Nc1ccc(C(C)=O)cc1`: the Toxicity in the assay on Schistosoma mansoni [1], with Schistosoma mansoni [2] and in the assay on Schistosoma mansoni [3] was 0 in each case.
Turning to `COc1cc(-c2nc(-c3ccc(Sc4ccccc4)cc3)c(-c3ccccc3)[nH]2)cc(OC)c1O`, the Toxicity with Schistosoma mansoni [1], with Schistosoma mansoni [2] and in the assay with Schistosoma mansoni [3] was 0 throughout.
Take `Cc1cc(Nc2ccc(OCc3ccccc3)cc2)nc2cc(O)ccc12`: the Toxicity with Schistosoma mansoni [1] stood at 2; in the assay on Schistosoma mansoni [2] it was 3; in the assay on Schistosoma mansoni [3], 4.
The matching figures for `Cc1cc(=O)oc2c1ccc1oc(C(=O)c3ccccc3)c(C)c12`: 0, 0 and 0.
Regarding `CCOC(=O)c1cn(CC)c2cc(N(C)CCc3ccc(OC)c(OC)c3)c(F)cc2c1=O`, the Toxicity in the assay on Schistosoma mansoni [1], in the assay on Schistosoma mansoni [2] and in the assay on Schistosoma mansoni [3] was 0 in each case.
For the compound `CC(NCc1ccccc1)c1cc(Cl)ccc1O` (configuration not stated), the Toxicity in the assay on Schistosoma mansoni [1] is 2; in the assay on Schistosoma mansoni [2], 0; with Schistosoma mansoni [3], 0.
In the case of `Nc1nc(Nc2cccc(F)c2)nc2ccccc12`, the Toxicity in the assay with Schistosoma mansoni [1], in the assay on Schistosoma mansoni [2] and in the assay with Schistosoma mansoni [3] was 0 each time.
With `N=c1c2ccccc2nnn1-c1cccc(C(F)(F)F)c1`, the Toxicity in the assay with Schistosoma mansoni [1], in the assay on Schistosoma mansoni [2] and in the assay on Schistosoma mansoni [3] was 0 each time.
Turning to `CCOc1cc(CNC(C)C(O)c2ccccc2)cc(Cl)c1OCC` (configuration not stated), the Toxicity with Schistosoma mansoni [1] was 0; in the assay on Schistosoma mansoni [2], 0; with Schistosoma mansoni [3], 1.
For the compound `CCOc1ccc(-n2cc(-c3ccccc3)c3c(SCc4cc(C)ccc4C)ncnc32)cc1`, the Toxicity in the assay with Schistosoma mansoni [1], in the assay with Schistosoma mansoni [2] and in the assay with Schistosoma mansoni [3] was 0 throughout.
Turning to `CCOC(=O)c1cnc2ccc(CC)cc2c1O`, the Toxicity in the assay on Schistosoma mansoni [1], in the assay on Schistosoma mansoni [2] and with Schistosoma mansoni [3] was 0 in each case.
Consider `O=C(NC1CCN(Cc2ccccc2)CC1)c1cc2nc(-c3ccc(Cl)s3)cc(C(F)(F)F)n2n1`, for which the Toxicity in the assay with Schistosoma mansoni [1] came out at 0; in the assay on Schistosoma mansoni [2], 4; with Schistosoma mansoni [3], 4.
As to `O=C(Nc1ccc(C23CC4CC(CC(c5ccccc5)(C4)C2)C3)cc1)c1cccs1`, the Toxicity in the assay on Schistosoma mansoni [1], in the assay on Schistosoma mansoni [2] and in the assay on Schistosoma mansoni [3] was 2 each time.
Turning to `CN(C)CCCNc1c2ccccc2nc2ccccc12`, the Toxicity worked out at 2 with Schistosoma mansoni [1], 2 in the assay on Schistosoma mansoni [2] and 4 in the assay with Schistosoma mansoni [3].
Regarding `O=C(Nc1ccc(Cl)cc1C(=O)Nc1ccncc1)c1ccc(Cl)cc1Cl`, the Toxicity with Schistosoma mansoni [1], with Schistosoma mansoni [2] and with Schistosoma mansoni [3] was 0 in each case.
Take `COc1ccc(C)c2sc(N(Cc3cccnc3)C(=O)c3ccc(C#N)cc3)nc12`: the Toxicity in the assay on Schistosoma mansoni [1], with Schistosoma mansoni [2] and in the assay with Schistosoma mansoni [3] was 0 throughout.
On to `COc1ccc(CNC(=O)c2cc3c(=O)n4ccccc4nc3n(CCc3ccccc3)c2=N)cc1`, for which the Toxicity in the assay on Schistosoma mansoni [1] was 1; in the assay on Schistosoma mansoni [2], 4; with Schistosoma mansoni [3] it was 4.
With `COc1ccc(CN2CCN(Cc3ccccc3)CC2)c(O)c1`, the Toxicity with Schistosoma mansoni [1], in the assay with Schistosoma mansoni [2] and with Schistosoma mansoni [3] was 0 throughout.
Turning to `CC1CCCCN1CCCNC(=O)c1ccc2c(c1)sc1nc(-c3ccc(F)cc3)cn12` (configuration not stated), the Toxicity with Schistosoma mansoni [1] came out at 2; in the assay on Schistosoma mansoni [2], 0; in the assay with Schistosoma mansoni [3], 1.
The matching figures for `N=c1n(CCN2CCCCC2)c2ccccc2n1CC(=O)c1ccc(Cl)c(Cl)c1`: 3, 4 and 4.
Turning to `COc1ccc2c(c1OC)C(=O)N1c3ccccc3N=C(c3ccc(C)cc3)CC21` (configuration not stated), the Toxicity in the assay on Schistosoma mansoni [1], with Schistosoma mansoni [2] and with Schistosoma mansoni [3] was 0 each time.
As for `COc1ccc(C2c3ccc4ccccc4c3Oc3ncn(CCCn4ccnc4)c(=N)c32)cc1OC` (configuration not stated), the Toxicity with Schistosoma mansoni [1], with Schistosoma mansoni [2] and with Schistosoma mansoni [3] was 0 throughout.
Take `CCOc1cccc2sc(N(Cc3cccnc3)C(=O)C3CCCCC3)nc12`: the Toxicity with Schistosoma mansoni [1], with Schistosoma mansoni [2] and in the assay on Schistosoma mansoni [3] was 0 each time.
Take `Nc1ccc(-c2nc3cc(Cc4ccc5[nH]c(-c6ccc(N)cc6)nc5c4)ccc3[nH]2)cc1`: the Toxicity with Schistosoma mansoni [1], with Schistosoma mansoni [2] and in the assay with Schistosoma mansoni [3] was 1 in each case.
Regarding `COc1ccc2c(c1)C1(Nc3ccccc3-c3nc4ccccc4n31)C(=O)N2` (configuration not stated), the Toxicity with Schistosoma mansoni [1], with Schistosoma mansoni [2] and in the assay with Schistosoma mansoni [3] was 0 in each case.
On to `COc1cccc(NC(=O)Cn2c(C)c(C#N)c3ccccc32)c1`, for which the Toxicity with Schistosoma mansoni [1], in the assay on Schistosoma mansoni [2] and in the assay with Schistosoma mansoni [3] was 0 each time.
As for `c1ccc(Cn2c(N=Nc3c(Nc4ccccc4)ccc4ccccc34)nc3ccccc32)cc1`, the Toxicity with Schistosoma mansoni [1], in the assay with Schistosoma mansoni [2] and in the assay on Schistosoma mansoni [3] was 0 in each case.
As for `COc1ccc(C2C(C(=O)Nc3cccc(OC)c3)c3ccccc3C(=O)N2C2CCCCC2)cc1` (configuration not stated), the Toxicity in the assay on Schistosoma mansoni [1], in the assay on Schistosoma mansoni [2] and in the assay on Schistosoma mansoni [3] was 0 each time.
With `Cc1ccc(C2CC(C(F)(F)F)n3nc(C(=O)N4CCN(C(c5ccccc5)c5ccccc5)CC4)cc3N2)cc1` (configuration not stated), the Toxicity with Schistosoma mansoni [1], in the assay with Schistosoma mansoni [2] and in the assay with Schistosoma mansoni [3] was 0 in each case.
Regarding `COc1ccc(-c2nonc2NC(=O)c2cccc(Cl)c2)cc1OC`, the Toxicity with Schistosoma mansoni [1], in the assay with Schistosoma mansoni [2] and with Schistosoma mansoni [3] was 0 throughout.
Turning to `O=C(NC1CCN(Cc2ccccc2)CC1)c1cc(-c2cccnc2)nc2ccc(Cl)cc12`, the Toxicity in the assay on Schistosoma mansoni [1], in the assay with Schistosoma mansoni [2] and in the assay on Schistosoma mansoni [3] was 0 throughout.
For `Br.Cc1ccc(C)c(-c2csc(Nc3ccc(C)c(C)c3)n2)c1`, the Toxicity came to 0 with Schistosoma mansoni [1], 1 in the assay on Schistosoma mansoni [2] and 0 in the assay with Schistosoma mansoni [3].
For the compound `CCCCNCC(O)(c1ccc(Cl)cc1)c1ccc(Cl)cc1`, the Toxicity in the assay on Schistosoma mansoni [1], with Schistosoma mansoni [2] and with Schistosoma mansoni [3] was 0 each time.
Turning to `CCOc1ccc(/C=C/c2nc(=O)c3ccccc3o2)cc1`, the Toxicity with Schistosoma mansoni [1], with Schistosoma mansoni [2] and with Schistosoma mansoni [3] was 0 each time.
Take `COc1cccc(Nc2nc(NCCO)c3ccccc3n2)c1.Cl`: the Toxicity in the assay on Schistosoma mansoni [1], in the assay with Schistosoma mansoni [2] and in the assay on Schistosoma mansoni [3] was 0 throughout.
In the case of `O=C1c2ccccc2-c2nnc(-c3ccc(Br)cc3)cc21`, the Toxicity in the assay on Schistosoma mansoni [1], with Schistosoma mansoni [2] and in the assay on Schistosoma mansoni [3] was 0 throughout.
As for `Cc1cc(C)cc(Nc2cc(C)nc3nc(C(F)(F)F)nn23)c1`, the Toxicity in the assay on Schistosoma mansoni [1], in the assay with Schistosoma mansoni [2] and in the assay on Schistosoma mansoni [3] was 0 each time.
For the compound `O=c1nc(C=Cc2ccc(Cl)cc2)oc2ccccc12`, the Toxicity in the assay with Schistosoma mansoni [1] was 2; with Schistosoma mansoni [2] it was 0; in the assay on Schistosoma mansoni [3], 0.
For the compound `Cc1ccc2cc3c(N)c4c(C)ccc(C)c4nc3nc2c1`, the Toxicity with Schistosoma mansoni [1], in the assay on Schistosoma mansoni [2] and in the assay on Schistosoma mansoni [3] was 0 throughout.
Regarding `Cc1c(C)n(Cc2ccc(F)cc2)c2ccc(C(=O)NCc3ccco3)cc12`, the Toxicity in the assay on Schistosoma mansoni [1] is 1; in the assay with Schistosoma mansoni [2], 2; with Schistosoma mansoni [3] it was 2.
As to `OC(CNC1CCCCC1)Cn1c2ccc(I)cc2c2cc(I)ccc21` (configuration not stated), the Toxicity in the assay with Schistosoma mansoni [1], in the assay with Schistosoma mansoni [2] and in the assay on Schistosoma mansoni [3] was 4 throughout.
In the case of `CN1CCN(c2nc(Nc3ccc(O)cc3)nc3ccccc23)CC1.Cl`, the Toxicity in the assay on Schistosoma mansoni [1], in the assay with Schistosoma mansoni [2] and in the assay on Schistosoma mansoni [3] was 0 throughout.
Regarding `CCOc1ccc2nc(C)cc(Nc3ccc(N(C)C)cc3)c2c1.Cl`, the Toxicity in the assay with Schistosoma mansoni [1] was found to be 2; in the assay on Schistosoma mansoni [2], 4; with Schistosoma mansoni [3], 4.
Turning to `Oc1ccc(-c2nc(-c3ccc4oc5ccc(-c6[nH]c(-c7ccc(O)cc7)nc6-c6ccccc6)cc5c4c3)c(-c3ccccc3)[nH]2)cc1`, the Toxicity in the assay with Schistosoma mansoni [1], in the assay with Schistosoma mansoni [2] and with Schistosoma mansoni [3] was 0 throughout.
With `Cc1ccc(OCCCCCCNCCO)c(C)c1`, the Toxicity in the assay on Schistosoma mansoni [1], in the assay with Schistosoma mansoni [2] and in the assay with Schistosoma mansoni [3] was 0 throughout.
Turning to `CCOc1cc2c(cc1OCC)C(c1cc(OC)c(O)cc1Cl)NCC2` (configuration not stated), the Toxicity with Schistosoma mansoni [1], in the assay on Schistosoma mansoni [2] and with Schistosoma mansoni [3] was 0 throughout.
As to `O=C(Nc1ccc(Br)cc1)Nc1cccc(Cl)c1`, the Toxicity with Schistosoma mansoni [1] came to 0; in the assay on Schistosoma mansoni [2], 0; in the assay with Schistosoma mansoni [3], 3.
For `c1ccc2cc3c(Nc4ccc(N5CCOCC5)cc4)ccnc3cc2c1`, the figures for the Toxicity with Schistosoma mansoni [1], with Schistosoma mansoni [2] and in the assay with Schistosoma mansoni [3] were 2, 4 and 4, respectively.
For the compound `Cc1ccc2c(C)nc(Nc3nc(C)cc(-c4ccccc4)n3)nc2c1`, the Toxicity in the assay on Schistosoma mansoni [1], in the assay on Schistosoma mansoni [2] and in the assay on Schistosoma mansoni [3] was 0 throughout.
As for `CN(C)c1ccc(-c2nc3cc(N)ccc3[nH]2)cc1`, the Toxicity in the assay with Schistosoma mansoni [1], with Schistosoma mansoni [2] and with Schistosoma mansoni [3] was 0 each time.
